In patent US20140193827A1 (TEVA PHARMACEUTICAL INDUSTRIES, LTD., priority 2013, published 2014):

Test system: GA-primed murine splenocytes
Experiment: Tolerance method for assessing process variability
Conditions: microarray; splenocytes activated 24 hours

Q: Which results are given for glatiramer acetate [GA]?
A: AVG expression of 1110067B18RIK, probe ILMN_2514723: 8.228; AVG expression of 1190002H23RIK, probe ILMN_2593774: 7.583; AVG expression of 1700129I04RIK, probe ILMN_1224390: 6.752; AVG expression of 2810485I05RIK, probe ILMN_2695217: 10.37; AVG expression of A130087I02RIK, probe ILMN_1232144: 6.482; AVG expression of A630077B13RIK, probe ILMN_1249864: 9.099; AVG expression of A930005H10RIK, probe ILMN_1250135: 10.04; AVG expression of ADA, probe ILMN_2686132: 7.525; AVG expression of AI467606, probe ILMN_1213645: 10.38; AVG expression of ANKRD11, probe ILMN_2727235: 9.978; AVG expression of APPL2, probe ILMN_1219978: 7.742; AVG expression of ARHGAP4, probe ILMN_2677876: 11.38; AVG expression of ARRB2, probe ILMN_2700848: 9.049; AVG expression of AVIL, probe ILMN_2753149: 6.407; AVG expression of B3GNT7, probe ILMN_2655571: 6.563; AVG expression of B230345P09RIK, probe ILMN_2469190: 8.997; AVG expression of BATF3, probe ILMN_2526739: 6.73; AVG expression of BC038822, probe ILMN_2804103: 7.38; AVG expression of BC065085, probe ILMN_2974737: 7.582; AVG expression of BEX4, probe ILMN_3118584: 6.717; AVG expression of BLVRB, probe ILMN_2770917: 9.003; AVG expression of C3, probe ILMN_2759484: 8.352; AVG expression of C130078N17RIK, probe ILMN_2522495: 10.34; AVG expression of C230082I21RIK, probe ILMN_1248824: 8.744; AVG expression of C430002D13RIK, probe ILMN_2571616: 7.951; AVG expression of CCND2, probe ILMN_1225932: 8.425; AVG expression of CCNG1, probe ILMN_2710229: 8.72; AVG expression of CCR6, probe ILMN_2888448: 11.42; AVG expression of CD44, probe ILMN_1223697: 10.12; AVG expression of CHD3, probe ILMN_2524861: 7.978; AVG expression of CHKA, probe ILMN_3026397: 12.08; AVG expression of CLASP1, probe ILMN_1225769: 7.92; AVG expression of CLIC4, probe ILMN_2599018: 7.206; AVG expression of CLSPN, probe ILMN_2858359: 8.857; AVG expression of CRTC3, probe ILMN_1248891: 8.262; AVG expression of CSNK1G3, probe ILMN_2793946: 9.73; AVG expression of CYP51, probe ILMN_2688075: 9.707; AVG expression of DEADC1, probe ILMN_2705097: 9.246; AVG expression of DGKZ, probe ILMN_1239607: 8.46; AVG expression of DLM1-PENDING, probe ILMN_1218547: 6.869; AVG expression of DYRK2, probe ILMN_3138439: 6.905; AVG expression of E2F3, probe ILMN_2743503: 7.726; AVG expression of EG433016, probe ILMN_2995688: 8.853; AVG expression of ENTPD5, probe ILMN_3149143: 7.434; AVG expression of F2RL1, probe ILMN_2769567: 6.312; AVG expression of FBXO4, probe ILMN_2772920: 9.934; AVG expression of FOSL2, probe ILMN_1252481: 8.057; AVG expression of FOXP3, probe ILMN_2917180: 7.709; AVG expression of FSCN1, probe ILMN_2630605: 8.879; AVG expression of FXYD5, probe ILMN_1235493: 10.05; AVG expression of GAB3, probe ILMN_3133748: 7.208; AVG expression of GRN, probe ILMN_2595973: 10.66; AVG expression of H3F3B, probe ILMN_1231168: 8.812; AVG expression of HAMP, probe ILMN_1236304: 6.455; AVG expression of HEG1, probe ILMN_2600022: 7.682; AVG expression of HIST2H2AA1, probe ILMN_2751948: 7.127; AVG expression of HTT, probe ILMN_2672091: 7.448; AVG expression of IFITM1, probe ILMN_2814484: 7.066; AVG expression of IFNGR2, probe ILMN_2784272: 9.806; AVG expression of IGK-V5, probe ILMN_2631259: 11.21; AVG expression of IL1A, probe ILMN_1227018: 8.103; AVG expression of IL13, probe ILMN_2927131: 6.7; AVG expression of IRF8, probe ILMN_2673369: 10.92; AVG expression of KIF1B, probe ILMN_2587761: 6.394; AVG expression of LDHA, probe ILMN_1257965: 12.99; AVG expression of LOC386005, probe ILMN_2538029: 10.77; AVG expression of LOC637711, probe ILMN_1239601: 8.053; AVG expression of LOC677643, probe ILMN_1225733: 9.931; AVG expression of LOC100043671, probe ILMN_1258600: 9.958; AVG expression of LOC100046496, probe ILMN_1229263: 10.5; AVG expression of LOC100046793, probe ILMN_2469743: 12; AVG expression of LOC100047316, probe ILMN_1215825: 8.765; AVG expression of LY78, probe ILMN_2585533: 7.951; AVG expression of MSH5, probe ILMN_1241923: 6.819; AVG expression of NFAT5, probe ILMN_2612448: 9.617; AVG expression of NKG7, probe ILMN_1217855: 9.69; AVG expression of PEA15, probe ILMN_2624938: 8.032; AVG expression of PEX11C, probe ILMN_2467365: 6.162; AVG expression of RABAC1, probe ILMN_1244857: 10.79; AVG expression of RDM1, probe ILMN_1218934: 9.296; AVG expression of RFC3, probe ILMN_2543834: 7.31; AVG expression of RNF167, probe ILMN_2892856: 9.181; AVG expression of RUNDC3B, probe ILMN_2660596: 7.1822; AVG expression of SCN4A, probe ILMN_2814847: 7.299; AVG expression of SDF2L1, probe ILMN_1221943: 9.843; AVG expression of SERPINA3H, probe ILMN_2889832: 7.95; AVG expression of SGCB, probe ILMN_1255256: 7.292
